Reference: article PMC5374412, “Development of Pharmacophore Model for Indeno[1,2-b]indoles as Human Protein Kinase CK2 Inhibitors and Database Mining” (Pharmaceuticals, 2017)

Biological target: T1, human protein kinase CK2 (holoenzyme) (Homo sapiens, UniProt P68400)
T1 construct: gene CSNK2A1; CK2 holoenzyme, recombinant, expressed in E. coli; with CK2 regulatory subunit beta (CSNK2B), as part of the holoenzyme
Assay: capillary electrophoresis-based kinase activity assay, peptide substrate RRRDDDSDDD
Format: biochemical

T1 sequence (P68400 whole entry): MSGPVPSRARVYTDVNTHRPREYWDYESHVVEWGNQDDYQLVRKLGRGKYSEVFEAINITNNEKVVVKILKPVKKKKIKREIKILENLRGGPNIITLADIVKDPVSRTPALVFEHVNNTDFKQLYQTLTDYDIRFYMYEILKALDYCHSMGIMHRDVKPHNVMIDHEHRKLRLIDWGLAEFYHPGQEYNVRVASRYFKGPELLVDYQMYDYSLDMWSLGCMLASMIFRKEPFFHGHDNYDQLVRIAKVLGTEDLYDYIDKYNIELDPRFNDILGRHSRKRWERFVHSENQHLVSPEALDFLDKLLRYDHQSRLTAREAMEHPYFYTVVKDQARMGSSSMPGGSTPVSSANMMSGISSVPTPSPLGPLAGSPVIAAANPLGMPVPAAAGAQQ
T1 sequence (P67870 2-215 partner): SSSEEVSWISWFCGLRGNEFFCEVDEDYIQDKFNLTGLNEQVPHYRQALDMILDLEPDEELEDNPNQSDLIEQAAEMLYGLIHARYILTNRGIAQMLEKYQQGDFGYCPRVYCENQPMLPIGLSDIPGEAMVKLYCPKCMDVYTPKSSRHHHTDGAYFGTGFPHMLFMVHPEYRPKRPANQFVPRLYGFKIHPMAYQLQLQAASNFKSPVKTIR

COC1=CC(=O)c2c(c(O)c3oc4cc(OC)cc(C)c4c(=O)c3c2O)C1=O [ZINC05765165, 6,11-dihydroxy-3,8-dimethoxy-1-methylbenzo[b]xanthene-7,10,12-trione]
IC50: 1240 nM
